Reference: patent publication US8551939B2, “Peptide analogues, particularly for the treatment of chronic pain” (Instytut Medycyny Doswiadczalnej I Klinicznej, priority 2008, dated 2013)
Where a SMILES comes first, the peptide text is derived from it. [ ]: non-standard residue; d: D form.

Experiments:
Assay type in all cases: in vivo
[1] = tested on: mice with inflammation; assay: Tail immersion (55° C.) acute pain test in mice with Freund's adjuvant induced paw inflammation; settings: one week after Freund's adjuvant into the paw, intravenous, 20 mg/kg
Method: Inflammation was induced in mice by administering Freund's adjuvant into the paw. Inflammation was observed within two days. After a week, we examined the analgesic activity of the peptide analogue Tyrosyl-D-lysyl-phenylalanyl-phenylalanyl-arginyl-arginyl-prolyl-tyrosyl-isoleucyl-leucine against acute pain elicited by immersion of the tail into 55° C.

[2] = tested on: rats; assay: Analgesic activity against thermal pain after administration into the subarachnoid space via cannulae; settings: subarachnoid cannula
From the text: Two weeks prior to the experiment, rats were implanted with cannulae into the subarachnoid space. On the day of the experiment we examined analgesic activity by administering the peptide Tyrosyl-D-lysyl-phenylalanyl-phenylalanyl-lysyl-lysyl-prolyl-tyrosyl-isoleucyl-leucine.

[3] = tested on: mice with inflammation due to tumour take; assay: Oncogenic pain model (murine melanoma cells into the hind leg), tail immersion in 55° C. water; settings: two weeks of melanoma tumour development, intraperitoneal, 30 mg/kg
Method: In an animal oncogenic pain model, in mice, inflammation was induced via the administration of about a million murine melanoma cells into the hind leg. After two days we observed increasing inflammation due to tumour take. After two weeks of tumour development we examined the effect of Tyrosyl-D-arginyl-phenylalanyl-phenylalanyl-lysyl-lysyl-prolyl-tyrosyl-isoleucyl-leucine against acute pain elicited by tail immersion in 55° C. water.

CC[C@H](C)[C@H](NC(=O)[C@H](Cc1ccc(O)cc1)NC(=O)[C@@H]1CCCN1C(=O)[C@H](CCCNC(=N)N)NC(=O)[C@H](CCCNC(=N)N)NC(=O)[C@H](Cc1ccccc1)NC(=O)[C@H](Cc1ccccc1)NC(=O)[C@@H](CCCCN)NC(=O)[C@@H](N)Cc1ccc(O)cc1)C(=O)N[C@@H](CC(C)C)C(=O)O [Tyrosyl-D-lysyl-phenylalanyl-phenylalanyl-arginyl-arginyl-prolyl-tyrosyl-isoleucyl-leucine] (H-Y[dK]FFRRPYIL-OH)
analgesic activity against acute pain elicited by immersion of the tail into 55° C. [1]: complete analgesis

CC[C@H](C)[C@H](NC(=O)[C@H](Cc1ccc(O)cc1)NC(=O)[C@@H]1CCCN1C(=O)[C@H](CCCCN)NC(=O)[C@H](CCCCN)NC(=O)[C@H](Cc1ccccc1)NC(=O)[C@H](Cc1ccccc1)NC(=O)[C@@H](CCCCN)NC(=O)[C@@H](N)Cc1ccc(O)cc1)C(=O)N[C@@H](CC(C)C)C(=O)O [Tyrosyl-D-lysyl-phenylalanyl-phenylalanyl-lysyl-lysyl-prolyl-tyrosyl-isoleucyl-leucine] (H-Y[dK]FFKKPYIL-OH)
change of analgesic effect on repeated administration (tolerance) ([2]; daily dose of 5 mg): no changes in the extensive analgesic effect
analgesic activity against thermal pain ([2]; dose of 5 mg): complete analgesis
duration of complete analgesis against thermal pain ([2]; dose of 5 mg): 1 h

CC[C@H](C)[C@H](NC(=O)[C@H](Cc1ccc(O)cc1)NC(=O)[C@@H]1CCCN1C(=O)[C@H](CCCCN)NC(=O)[C@H](CCCCN)NC(=O)[C@H](Cc1ccccc1)NC(=O)[C@H](Cc1ccccc1)NC(=O)[C@@H](CCCNC(=N)N)NC(=O)[C@@H](N)Cc1ccc(O)cc1)C(=O)N[C@@H](CC(C)C)C(=O)O [Tyrosyl-D-arginyl-phenylalanyl-phenylalanyl-lysyl-lysyl-prolyl-tyrosyl-isoleucyl-leucine] (H-Y[dR]FFKKPYIL-OH)
effect against acute pain elicited by tail immersion in 55° C. water [3]: complete analgesis
